In ChEMBL document CHEMBL4507326, “Data for DCP probe TP-030-2” (2021):
pIC50: −log10 of the molar value.

What was measured:
[1] = target: Cytoplasmic tyrosine-protein kinase BMX (Homo sapiens, UniProt P51813); experiment: Etk [BMX(BMX1CGF1)] Takeda global kinase panel
Mus musculus = organism: Mus musculus; experiment: Inhibition of Phorbol Ester at 10 µM in the Eurofins-Panlabs radioligand binding assay (Eurofins_assay_264500); parameters: ligand concentration 3 nM; settings: Compound concentration 10.0 uM
[2] = target: Receptor tyrosine-protein kinase erbB-4 (Homo sapiens, UniProt Q15303); experiment: HER4(ERB4CGF1) Takeda global kinase panel
[3] = target: Serine/threonine-protein kinase Nek11 (Homo sapiens, UniProt Q8NG66); experiment: Nek11(NE11LGRI) Takeda global kinase panel
[4] = target: Tyrosine-protein kinase receptor UFO (Homo sapiens, UniProt P30530); experiment: Axl(AXL1LGY1) Takeda global kinase panel
[5] = target: Cyclin-dependent kinase 3 (Homo sapiens, UniProt Q00526); experiment: CDK3(CDK3CGS1) Takeda global kinase panel
[6] = target: Mitogen-activated protein kinase kinase kinase 7 (Homo sapiens, UniProt O43318); experiment: TAK1(M3K7CHY1) Takeda global kinase panel
[7] = target: Protein kinase C beta type (Homo sapiens, UniProt P05771); experiment: PKCbeta(PRKBPHY3) Takeda global kinase panel
Homo sapiens = organism: Homo sapiens; settings: Compound concentration 10.0 uM
[8] = target: B2 bradykinin receptor (Homo sapiens) (UniProt P30411); settings: Compound concentration 10.0 uM
Myosin-IIIb = Myosin-IIIb (Homo sapiens, UniProt Q8WXR4); experiment: MYO3B(MY3BLGA1) Takeda global kinase panel
[9] = target: Mitogen-activated protein kinase kinase kinase 5 (Homo sapiens, UniProt Q99683); experiment: ASK [MAP3K5(M3K5LGA1)] Takeda global kinase panel
[10] = target: Serine/threonine-protein kinase OSR1 (Homo sapiens, UniProt O95747); experiment: OSR1(OXS1LGY1) Takeda global kinase panel
[11] = target: Glutamate receptor ionotropic, kainate (Rattus norvegicus) (UniProt P22756+Q01812+P42260+P42264+Q63273); settings: Compound concentration 10.0 uM
[12] = target: Serine/threonine-protein kinase PAK 6 (Homo sapiens, UniProt Q9NQU5); experiment: PAK6(PAK6CGY1) Takeda global kinase panel
[13] = target: Adenosine receptor A3 (Homo sapiens) (UniProt P0DMS8); settings: Compound concentration 10.0 uM
[14] = target: Protein-tyrosine kinase 6 (Homo sapiens, UniProt Q13882); experiment: Brk(PTK6LGY1) Takeda global kinase panel
[15] = target: Bromodomain testis-specific protein (Homo sapiens, UniProt Q58F21); experiment: BRDT(BRDTLGRC) Takeda global kinase panel
[16] = target: Rho-associated protein kinase 2 (Homo sapiens, UniProt O75116); experiment: ROCK2(ROC2LGG1) Takeda global kinase panel
[17] = target: Serine/threonine-protein kinase/endoribonuclease IRE1 (Homo sapiens, UniProt O75460); experiment: IRE1(ERN1PHY1) Takeda global kinase panel
[18] = target: Alpha-1D adrenergic receptor (Homo sapiens) (UniProt P25100); experiment: Inhibition of Adrenergic alpha1D at 10 µM in the Eurofins-Panlabs radioligand binding assay (Eurofins_assay_203400); settings: Compound concentration 10.0 uM
[19] = target: Serine/threonine-protein kinase MRCK alpha (Homo sapiens, UniProt Q5VT25); experiment: MRCKalpha(CD4ALGY1) Takeda global kinase panel
[20] = target: G protein-coupled receptor kinase 4 (Homo sapiens, UniProt P32298); experiment: GRK4(GRK4LGRI) Takeda global kinase panel
[21] = target: Cyclin-dependent kinase 5 (Homo sapiens, UniProt Q00535); experiment: CDK5(CDK5CGS1) Takeda global kinase panel
Rattus norvegicus = organism: Rattus norvegicus; experiment: Inhibition of Rolipram at 10 µM in the Eurofins-Panlabs radioligand binding assay (Eurofins_assay_268811); type: protein assay; parameters: ligand concentration 1.8 nM; settings: Compound concentration 10.0 uM
[22] = target: G protein-coupled receptor kinase 3 (Homo sapiens, UniProt P35626); experiment: BARK2 [GRK3(ADR2LGG5)] Takeda global kinase panel
[23] = target: Tyrosine-protein kinase ABL2 (Homo sapiens, UniProt P42684); experiment: Arg(ABL2LGF1) Takeda global kinase panel
Insulin receptor = Insulin receptor (Homo sapiens, UniProt P06213); experiment: InSR(INSRLGY1) Takeda global kinase panel
[24] = target: 5'-AMP-activated protein kinase catalytic subunit alpha-1 (Homo sapiens, UniProt Q13131); experiment: AMPKalpha1(PRA1PGF1) Takeda global kinase panel
[25] = target: Protein kinase C iota type (Homo sapiens, UniProt P41743); experiment: PKCiota(PRKILGRD) Takeda global kinase panel
[26] = target: Hormonally up-regulated neu tumor-associated kinase (Homo sapiens, UniProt P57058); experiment: HUNK(HUNKLGRN) Takeda global kinase panel
[27] = target: Receptor-interacting serine/threonine-protein kinase 1 (Homo sapiens, UniProt Q13546); experiment: RIPK1(RIP1PGN1) Takeda global kinase panel
[28] = target: Inhibitor of nuclear factor kappa-B kinase subunit epsilon (Homo sapiens, UniProt Q14164); experiment: IKKepsilon(IKBELGY1) Takeda global kinase panel
[29] = target: Serine/threonine-protein kinase NLK (Homo sapiens, UniProt Q9UBE8); experiment: NLK(NLK1LGI5) Takeda global kinase panel
[30] = target: Alpha-2B adrenergic receptor (Homo sapiens) (UniProt P18089); settings: Compound concentration 10.0 uM
[31] = target: Cannabinoid receptor 1 (Homo sapiens) (UniProt P21554); experiment: Inhibition of Cannabinoid CB1 at compound concentration of 10.0 uM in the Eurofins-Panlabs radioligand binding assay (Eurofins_assay_217050); parameters: ligand concentration 2 nM; settings: Compound concentration 10.0 uM
[32] = target: D(2) dopamine receptor (Homo sapiens) (UniProt P14416); settings: Compound concentration 10.0 uM
Ephrin type-A receptor 4 = Ephrin type-A receptor 4 (Homo sapiens, UniProt P54764); experiment: EphA4(EPA4LGF1) Takeda global kinase panel
LIM domain kinase 1 = LIM domain kinase 1 (Homo sapiens, UniProt P53667); experiment: LIMK1(LIM1LGY1) Takeda global kinase panel
TGF-beta receptor type-2 = TGF-beta receptor type-2 (Homo sapiens, UniProt P37173); experiment: TGFbetaR2(TGF2LGY1) Takeda global kinase panel
[33] = target: Mitogen-activated protein kinase kinase kinase kinase 5 (Homo sapiens, UniProt Q9Y4K4); experiment: KHS1(M4K5LGY1) Takeda global kinase panel
[34] = target: Mitogen-activated protein kinase 14 (Homo sapiens, UniProt Q16539); experiment: p38alpha(MP14LGI1) Takeda global kinase panel
[35] = target: Dual specificity testis-specific protein kinase 2 (Homo sapiens, UniProt Q96S53); experiment: TESK2(TES2LGRL) Takeda global kinase panel
[36] = target: Serine/threonine-protein kinase pim-2 (Homo sapiens, UniProt Q9P1W9); experiment: Pim2(PIM2LHY1) Takeda global kinase panel
[37] = target: Casein kinase II subunit alpha (Homo sapiens, UniProt P68400); experiment: CK2alpha1(C2A1LGF1) Takeda global kinase panel
[38] = target: Alpha-2A adrenergic receptor (Homo sapiens) (UniProt P08913); settings: Compound concentration 10.0 uM

Sequence of Adenosine receptor A3 (Homo sapiens) (P0DMS8 whole entry): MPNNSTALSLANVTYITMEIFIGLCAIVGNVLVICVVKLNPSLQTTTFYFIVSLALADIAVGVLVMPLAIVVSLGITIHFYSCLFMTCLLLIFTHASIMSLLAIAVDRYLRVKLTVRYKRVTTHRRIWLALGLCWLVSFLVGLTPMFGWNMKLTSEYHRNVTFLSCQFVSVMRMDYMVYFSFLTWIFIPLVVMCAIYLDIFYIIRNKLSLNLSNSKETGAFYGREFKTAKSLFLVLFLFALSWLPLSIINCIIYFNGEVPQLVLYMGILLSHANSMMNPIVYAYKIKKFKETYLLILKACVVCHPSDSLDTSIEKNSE
Sequence of LIM domain kinase 1 (P53667 whole entry, the tested form may be a part): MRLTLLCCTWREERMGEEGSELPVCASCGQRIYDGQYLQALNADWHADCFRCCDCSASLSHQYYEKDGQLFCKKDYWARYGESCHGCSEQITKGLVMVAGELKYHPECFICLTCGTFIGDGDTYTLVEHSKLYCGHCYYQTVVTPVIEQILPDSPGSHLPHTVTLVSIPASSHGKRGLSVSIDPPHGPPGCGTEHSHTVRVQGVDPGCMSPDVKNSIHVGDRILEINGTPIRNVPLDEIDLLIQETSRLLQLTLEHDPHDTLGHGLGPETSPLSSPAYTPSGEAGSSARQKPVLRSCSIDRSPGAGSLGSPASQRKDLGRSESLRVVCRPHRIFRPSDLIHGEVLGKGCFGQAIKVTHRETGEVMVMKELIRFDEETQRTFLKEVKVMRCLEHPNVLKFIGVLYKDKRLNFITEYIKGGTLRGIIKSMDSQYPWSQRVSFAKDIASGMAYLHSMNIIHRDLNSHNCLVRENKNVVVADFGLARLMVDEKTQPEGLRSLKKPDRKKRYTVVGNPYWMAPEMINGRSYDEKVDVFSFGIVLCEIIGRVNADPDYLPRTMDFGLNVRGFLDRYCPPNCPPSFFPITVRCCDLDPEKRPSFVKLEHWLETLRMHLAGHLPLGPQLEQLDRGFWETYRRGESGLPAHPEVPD
Sequence of Receptor tyrosine-protein kinase erbB-4 (Q15303 whole entry): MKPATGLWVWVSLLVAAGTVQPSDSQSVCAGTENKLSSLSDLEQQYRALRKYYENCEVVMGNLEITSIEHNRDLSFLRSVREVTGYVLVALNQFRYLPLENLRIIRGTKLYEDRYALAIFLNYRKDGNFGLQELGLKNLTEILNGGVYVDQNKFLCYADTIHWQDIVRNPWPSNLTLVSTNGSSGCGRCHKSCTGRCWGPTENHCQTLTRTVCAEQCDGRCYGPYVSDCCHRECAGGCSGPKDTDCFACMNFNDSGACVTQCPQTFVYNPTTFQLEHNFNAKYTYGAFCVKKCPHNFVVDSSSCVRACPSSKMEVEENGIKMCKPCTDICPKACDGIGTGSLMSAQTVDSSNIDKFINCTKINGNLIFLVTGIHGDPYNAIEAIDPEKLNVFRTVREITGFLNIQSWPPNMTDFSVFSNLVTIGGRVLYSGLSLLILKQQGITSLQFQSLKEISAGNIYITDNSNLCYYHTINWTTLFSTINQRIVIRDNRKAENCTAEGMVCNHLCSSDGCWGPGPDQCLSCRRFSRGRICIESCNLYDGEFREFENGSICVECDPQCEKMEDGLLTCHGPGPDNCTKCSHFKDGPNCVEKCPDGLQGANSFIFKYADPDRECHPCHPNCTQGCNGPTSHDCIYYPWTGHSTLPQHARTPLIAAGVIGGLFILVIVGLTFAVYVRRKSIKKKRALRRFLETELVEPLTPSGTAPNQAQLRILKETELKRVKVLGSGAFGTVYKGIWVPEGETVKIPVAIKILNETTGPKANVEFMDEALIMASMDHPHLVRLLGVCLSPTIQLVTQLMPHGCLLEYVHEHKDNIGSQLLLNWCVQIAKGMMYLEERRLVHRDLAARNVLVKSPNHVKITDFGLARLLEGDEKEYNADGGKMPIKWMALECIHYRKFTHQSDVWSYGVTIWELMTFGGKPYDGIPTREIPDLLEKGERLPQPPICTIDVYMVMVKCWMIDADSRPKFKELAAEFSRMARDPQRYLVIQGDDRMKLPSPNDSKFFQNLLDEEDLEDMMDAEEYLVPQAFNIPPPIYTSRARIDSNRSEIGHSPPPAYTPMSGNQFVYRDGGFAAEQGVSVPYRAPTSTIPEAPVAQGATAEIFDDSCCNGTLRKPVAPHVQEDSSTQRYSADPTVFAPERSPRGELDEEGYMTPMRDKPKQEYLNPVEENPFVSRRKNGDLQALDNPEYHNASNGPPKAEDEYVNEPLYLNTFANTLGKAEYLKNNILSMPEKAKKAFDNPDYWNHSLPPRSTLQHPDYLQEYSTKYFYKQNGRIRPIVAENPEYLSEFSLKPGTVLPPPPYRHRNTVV
Sequence of Serine/threonine-protein kinase PAK 6 (Q9NQU5 whole entry): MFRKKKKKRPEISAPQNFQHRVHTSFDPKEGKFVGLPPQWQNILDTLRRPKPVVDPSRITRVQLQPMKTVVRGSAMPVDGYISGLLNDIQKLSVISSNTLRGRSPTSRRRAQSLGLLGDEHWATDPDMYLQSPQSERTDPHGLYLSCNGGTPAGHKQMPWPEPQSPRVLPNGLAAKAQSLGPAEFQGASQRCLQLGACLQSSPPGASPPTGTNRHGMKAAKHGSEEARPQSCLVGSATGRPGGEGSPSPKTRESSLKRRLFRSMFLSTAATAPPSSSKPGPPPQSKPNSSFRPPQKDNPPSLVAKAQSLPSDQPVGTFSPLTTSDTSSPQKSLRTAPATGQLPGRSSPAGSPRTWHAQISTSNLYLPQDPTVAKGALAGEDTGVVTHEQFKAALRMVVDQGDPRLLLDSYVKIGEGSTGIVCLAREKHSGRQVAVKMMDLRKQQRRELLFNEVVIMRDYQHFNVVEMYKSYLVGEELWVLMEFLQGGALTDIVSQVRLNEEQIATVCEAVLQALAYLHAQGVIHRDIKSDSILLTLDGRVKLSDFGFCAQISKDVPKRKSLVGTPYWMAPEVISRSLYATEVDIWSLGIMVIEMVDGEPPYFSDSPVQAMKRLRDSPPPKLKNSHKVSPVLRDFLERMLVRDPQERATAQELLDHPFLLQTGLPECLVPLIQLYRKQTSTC
Sequence of Protein-tyrosine kinase 6 (Q13882 whole entry): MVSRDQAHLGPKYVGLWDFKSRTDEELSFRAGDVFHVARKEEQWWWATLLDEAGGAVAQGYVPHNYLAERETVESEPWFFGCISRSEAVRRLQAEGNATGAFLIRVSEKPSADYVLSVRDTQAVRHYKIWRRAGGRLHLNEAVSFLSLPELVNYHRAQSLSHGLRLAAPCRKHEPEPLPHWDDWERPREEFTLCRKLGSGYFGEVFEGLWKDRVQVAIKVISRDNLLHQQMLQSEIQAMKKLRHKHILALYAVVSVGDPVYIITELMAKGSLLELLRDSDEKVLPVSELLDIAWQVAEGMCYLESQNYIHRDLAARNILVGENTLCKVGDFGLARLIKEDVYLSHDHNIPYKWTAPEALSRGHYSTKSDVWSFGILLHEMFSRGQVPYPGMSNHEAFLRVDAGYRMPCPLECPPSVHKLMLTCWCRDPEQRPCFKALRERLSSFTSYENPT
Sequence of Ephrin type-A receptor 4 (P54764 whole entry, the tested form may be a part): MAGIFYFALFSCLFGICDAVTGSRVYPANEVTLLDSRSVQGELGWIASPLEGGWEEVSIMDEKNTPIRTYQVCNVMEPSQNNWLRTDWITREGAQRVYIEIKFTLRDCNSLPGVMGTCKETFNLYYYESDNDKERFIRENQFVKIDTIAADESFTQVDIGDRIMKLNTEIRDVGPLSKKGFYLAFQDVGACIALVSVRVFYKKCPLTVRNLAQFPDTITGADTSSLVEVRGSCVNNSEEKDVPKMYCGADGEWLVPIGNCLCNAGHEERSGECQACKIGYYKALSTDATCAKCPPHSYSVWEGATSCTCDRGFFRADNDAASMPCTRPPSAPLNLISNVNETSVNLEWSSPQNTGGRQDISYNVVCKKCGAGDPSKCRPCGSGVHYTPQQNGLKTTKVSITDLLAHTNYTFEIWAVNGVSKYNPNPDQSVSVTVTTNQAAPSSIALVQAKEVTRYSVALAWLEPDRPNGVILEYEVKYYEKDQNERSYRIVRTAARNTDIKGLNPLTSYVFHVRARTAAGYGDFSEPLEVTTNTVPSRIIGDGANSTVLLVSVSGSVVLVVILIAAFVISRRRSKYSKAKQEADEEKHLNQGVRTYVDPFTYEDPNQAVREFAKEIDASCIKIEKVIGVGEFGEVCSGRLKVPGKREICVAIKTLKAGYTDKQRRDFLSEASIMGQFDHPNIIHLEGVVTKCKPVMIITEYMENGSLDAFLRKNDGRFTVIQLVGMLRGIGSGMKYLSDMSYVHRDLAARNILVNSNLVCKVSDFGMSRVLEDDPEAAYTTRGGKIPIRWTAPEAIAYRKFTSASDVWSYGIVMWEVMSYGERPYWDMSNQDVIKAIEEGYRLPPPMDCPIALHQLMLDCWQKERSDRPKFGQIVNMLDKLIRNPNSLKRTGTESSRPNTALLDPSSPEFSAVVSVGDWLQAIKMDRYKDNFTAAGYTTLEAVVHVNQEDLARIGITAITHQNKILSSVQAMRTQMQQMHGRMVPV
Sequence of Cannabinoid receptor 1 (Homo sapiens) (P21554 whole entry): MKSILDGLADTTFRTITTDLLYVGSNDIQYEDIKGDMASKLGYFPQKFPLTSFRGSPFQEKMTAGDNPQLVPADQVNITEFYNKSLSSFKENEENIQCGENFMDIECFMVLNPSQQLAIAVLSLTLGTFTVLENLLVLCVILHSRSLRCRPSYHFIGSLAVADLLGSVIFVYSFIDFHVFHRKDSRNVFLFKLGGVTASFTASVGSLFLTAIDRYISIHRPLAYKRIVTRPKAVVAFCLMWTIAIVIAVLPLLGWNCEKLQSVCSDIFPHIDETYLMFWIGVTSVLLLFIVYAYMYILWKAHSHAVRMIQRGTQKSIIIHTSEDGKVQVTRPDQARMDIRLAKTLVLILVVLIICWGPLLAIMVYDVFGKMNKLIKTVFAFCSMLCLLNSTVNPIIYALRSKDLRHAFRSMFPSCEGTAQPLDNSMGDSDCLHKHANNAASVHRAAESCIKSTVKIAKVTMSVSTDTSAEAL

CN1C(=O)[C@@H](N2CCc3c(nn(Cc4ccccc4)c3Br)C2=O)COc2ccccc21 [TP-030-2]
inactive: inhibition (Mus musculus) 7% | inhibition (Homo sapiens) 16% | inhibition [8] 0% | inhibition [11] 5% | inhibition [13] 33% | inhibition [18] -2% | inhibition (Rattus norvegicus) 0% | inhibition [31] 40% | inhibition [32] -5.95%
active: inhibition [30] 59.6% | inhibition [38] 68%
6.00: pIC50 [1] | pIC50 [2] | pIC50 [3] | pIC50 [4] | pIC50 [5] | pIC50 [6] | pIC50 [7] | pIC50 (Myosin-IIIb) | pIC50 [9] | pIC50 [10] | pIC50 [12] | pIC50 [14] | pIC50 [15] | pIC50 [16] | pIC50 [17] | pIC50 [19] | pIC50 [20] | pIC50 [21] | pIC50 [22] | pIC50 [23] | pIC50 (Insulin receptor) | pIC50 [24] | pIC50 [25] | pIC50 [26] | pIC50 [28] | pIC50 [29] | pIC50 (Ephrin type-A receptor 4) | pIC50 (LIM domain kinase 1) | pIC50 (TGF-beta receptor type-2) | pIC50 [33] | pIC50 [34] | pIC50 [35] | pIC50 [36] | pIC50 [37]
8.00: pIC50 [27]
